{
  "source": "patent US20240115549A1",
  "about": "“TREATMENT OF MENTAL DISORDERS” (GH Research Ireland Limited, priority 2022, published 2024)",
  "tested_on": "patients with postpartum depression (PPD)",
  "test": "Clinical trial of inhaled 5-MeO-DMT in patients with postpartum depression",
  "format": "in vivo, human",
  "conditions": "individual PPD patient",
  "note": "Where “and” joins values, the source holds several entries; their conditions need not be identical. Equal entries are not always repeated.",
  "method": "The single-arm, open-label clinical trial will involve 15 adult female patients with clinically diagnosed postpartum depression (PPD).\nThe second dose (12 mg) will only be administered if: • a. A peak experience (total score of 275) has not been achieved following the 6 mg dose, and • b. The 6 mg dose was safe and well-tolerated according to the investigator, • c. Any psychoactive effects (PsE) of the prior dose have subsided, and • d. Pre-dose vital parameters and forced expiratory volume in one second (FEV1) are in normal range, or if outside of the normal range, are not clinically significant according to the investigator. • 3. Similarly, a third dose (18 mg) will only be administered if: • a. A peak experience (total score of 275) has not been achieved following the 12 mg dose, and • b. The 12 mg dose was safe and well-tolerated according to the investigator, and • c. Any PsE of the prior dose have subsided, and • d. Pre-dose vital parameters and forced expiratory volume in one second (FEV1) are in normal range, or if outside of the normal range, are not clinically significant according to the investigator.\nThe patients will be assessed for a peak psychedelic experience (based on a patient-scored visual analogue scale, the PE scale), sedation, and other endpoints after dosing. Follow-up visits are planned for Day 1, and Day 7 after the dosing day.\nThe following criteria must be met by all patients considered for clinical trial participation: • 1. Is female and in the age range between 18 and 45 years (inclusive) at screening. • 2. Has a body mass index (BMI) in the range of 18.5 and 35 kg/m^2 (inclusive) at screening. • 3. Meets the trial criteria for PPD as assessed by a trial psychiatrist or registered psychologist: • a. Diagnosis of Major Depressive Disorder without psychotic features, confirmed by the Mini-International Neuropsychiatric Interview (MINI), with peri-partum onset that began no earlier than gestation and no later than the first 4 weeks postpartum. • b. Has a Montgomery-Åsberg Depression Rating Scale (MADRS) total score of equal to or greater than 28 at screening and pre-dose on Day 0. • 6. […] Patients must have a negative pregnancy test at screening and on the pre-test day (Day −1). • 5. Is willing to delay start of other antidepressant or anxiety medication until after the end of the trial at Day 7 and agrees to keep any psychotherapy unchanged during the trial.\nA potential patient who meets any of the following key exclusion criteria will be excluded from participation in this trial: • 1. Has, based on history, psychiatric assessment, and evaluation of the MINI, a current or prior diagnosis of bipolar disorder, a manic or hypomanic episode, a psychotic disorder, Major Depressive Disorder (MDD) or other mood disorder with psychotic features, obsessive compulsive disorder, post-traumatic stress disorder (PTSD), autism spectrum disorder, borderline personality disorder, schizophrenia, delusional disorder, paranoid personality disorder, schizoaffective disorder, clinically significant intellectual disability, or any other psychiatric comorbidity that renders the patient unsuitable for the trial according to the investigator's judgment. • 2. Has one or more first or second degree relatives with a current or previously diagnosed bipolar disorder, psychotic disorder or other mood disorder (including MDD) with psychotic features. • 3. Is in the judgement of a trial psychiatrist or registered psychologist, at significant risk for suicide based on history, psychiatric assessment, and evaluation of suicidal ideation and suicidal behaviour based on the Columbia-Suicide Severity Rating Scale (C-SSRS). • 4. Has taken anti-depressive medication within 14 days or 5 half-lives (whichever is longer) prior to dosing (exception: within the last 5 weeks in the case of fluoxetine). • 5.",
  "data": [
    {"smiles": "COc1ccc2[nH]cc(CCN(C)C)c2c1", "note": "[5-MeO-DMT]", "values": [
      {"measurement": "BPRS emotional withdrawal score", "setting": "Day 7", "value": 1},
      {"measurement": "BPRS excitement improvement", "setting": "Day 7", "value": "1 and 0"},
      {"measurement": "BPRS excitement score", "setting": "Day 7", "value": 1},
      {"measurement": "BPRS grandiosity improvement", "setting": "Day 7", "value": 0},
      {"measurement": "BPRS grandiosity score", "setting": "Day 7", "value": 1},
      {"measurement": "BPRS guilt feelings improvement", "setting": "Day 7", "value": 5},
      {"measurement": "BPRS guilt feelings score", "setting": "Day 7", "value": 1},
      {"measurement": "BPRS hallucinatory behaviour improvement", "setting": "Day 7", "value": 0},
      {"measurement": "BPRS hallucinatory behaviour score", "setting": "Day 7", "value": 1},
      {"measurement": "BPRS hostility improvement", "setting": "Day 7", "value": "0 and 3"},
      {"measurement": "BPRS hostility score", "setting": "Day 7", "value": 1},
      {"measurement": "BPRS mannerisms and posturing improvement", "setting": "Day 7", "value": 0},
      {"measurement": "BPRS mannerisms and posturing score", "setting": "Day 7", "value": 1},
      {"measurement": "BPRS motor retardation improvement", "setting": "Day 7", "value": "0 and 2"},
      {"measurement": "BPRS motor retardation score", "setting": "Day 7", "value": 1},
      {"measurement": "BPRS somatic concern improvement", "setting": "Day 7", "value": "5 and 0"},
      {"measurement": "BPRS somatic concern score", "setting": "Day 7", "value": 1},
      {"measurement": "BPRS suspiciousness improvement", "setting": "Day 7", "value": 0},
      {"measurement": "BPRS suspiciousness score", "setting": "Day 7", "value": 1},
      {"measurement": "BPRS tension improvement", "setting": "Day 7", "value": "5 and 3"},
      {"measurement": "BPRS tension score", "setting": "Day 7", "value": 1},
      {"measurement": "BPRS uncooperativeness improvement", "setting": "Day 7", "value": 0},
      {"measurement": "BPRS uncooperativeness score", "setting": "Day 7", "value": 1},
      {"measurement": "BPRS unusual thought content improvement", "setting": "Day 7", "value": 0},
      {"measurement": "BPRS unusual thought content score", "setting": "Day 7", "value": 1},
      {"measurement": "MADRS apparent sadness improvement", "setting": "Day 7", "value": "5 and 4"},
      {"measurement": "MADRS apparent sadness score", "setting": "Day 7", "value": 0},
      {"measurement": "MADRS concentration difficulties improvement", "setting": "Day 7", "value": "0 and 4"},
      {"measurement": "MADRS concentration difficulties score", "setting": "Day 7", "value": 0},
      {"measurement": "MADRS inability to feel improvement", "setting": "Day 7", "value": "3 and 4"},
      {"measurement": "MADRS inability to feel score", "setting": "Day 7", "value": 0},
      {"measurement": "MADRS inner tension improvement", "setting": "Day 7", "value": 4},
      {"measurement": "MADRS inner tension score", "setting": "Day 7", "value": "1 and 0"},
      {"measurement": "MADRS lassitude improvement", "setting": "Day 7", "value": "3 and 4"},
      {"measurement": "MADRS lassitude score", "setting": "Day 7", "value": 0},
      {"measurement": "MADRS pessimistic thoughts improvement", "setting": "Day 7", "value": 4},
      {"measurement": "MADRS pessimistic thoughts score", "setting": "Day 7", "value": 0},
      {"measurement": "MADRS reduced appetite improvement", "setting": "Day 7", "value": "0 and 6"},
      {"measurement": "MADRS reduced appetite score", "setting": "Day 7", "value": 0},
      {"measurement": "MADRS reduced sleep improvement", "setting": "Day 7", "value": 5},
      {"measurement": "MADRS reduced sleep score", "setting": "Day 7", "value": 0},
      {"measurement": "MADRS reported sadness improvement", "setting": "Day 7", "value": "4 and 5"},
      {"measurement": "MADRS reported sadness score", "setting": "Day 7", "value": 0},
      {"measurement": "MADRS suicidal thoughts improvement", "setting": "Day 7", "value": "0 and 1"},
      {"measurement": "MADRS suicidal thoughts score", "setting": "Day 7", "value": 0},
      {"measurement": "Total MADRS improvement", "setting": "Day 7", "value": 41},
      {"measurement": "Total MADRS score", "setting": "Day 7", "value": 0},
      {"measurement": "BIMF TOTAL Δ", "setting": "Day 7 vs Day 0", "value": "13 and 45"},
      {"measurement": "BIMF domain Adjustment Δ", "setting": "Day 7 vs Day 0", "value": "1 and 9"},
      {"measurement": "BIMF domain Infant Care Δ", "setting": "Day 7 vs Day 0", "value": 0},
      {"measurement": "BIMF domain Management Δ", "setting": "Day 7 vs Day 0", "value": "5 and 13"},
      {"measurement": "BIMF domain Mother-Child Interaction Δ", "setting": "Day 7 vs Day 0", "value": "2 and 7"},
      {"measurement": "BIMF domain Psychological Well-being Δ", "setting": "Day 7 vs Day 0", "value": "9 and 27"},
      {"measurement": "BIMF domain Self-Care Δ", "setting": "Day 7 vs Day 0", "value": "4 and 10"},
      {"measurement": "BIMF domain Social Support % Improvement", "setting": "Day 7 vs Day 0", "value": "approx. 27% and 27%"},
      {"measurement": "BIMF domain Social Support Δ", "setting": "Day 7 vs Day 0", "value": "1 and 3"},
      {"measurement": "BIMF item 1 (I am a good mother) Δ", "setting": "Day 7 vs Day 0", "value": "0 and 1"},
      {"measurement": "BIMF item 2 (I feel rested) Δ", "setting": "Day 7 vs Day 0", "value": "2 and 4"},
      {"measurement": "BIMF item 3 (comfortable with the way I've chosen to feed my baby) Δ", "setting": "Day 7 vs Day 0", "value": "0 and 1"},
      {"measurement": "BIMF item 4 (My baby and I understand each other) Δ", "setting": "Day 7 vs Day 0", "value": "0 and 1"},
      {"measurement": "BIMF item 5 (able to relax and enjoy time with my baby) Δ", "setting": "Day 7 vs Day 0", "value": "1 and 5"},
      {"measurement": "BIMF item 6 (people I can trust to care for my baby when I need a break) Δ", "setting": "Day 7 vs Day 0", "value": 0},
      {"measurement": "BIMF item 8 (getting enough adult interaction) Δ", "setting": "Day 7 vs Day 0", "value": "0 and 1"},
      {"measurement": "BIMF item 9 (getting enough encouragement from other people) Δ", "setting": "Day 7 vs Day 0", "value": "1 and 2"},
      {"measurement": "BIMF item 10 (I trust my own feelings (instincts)) Δ", "setting": "Day 7 vs Day 0", "value": "1 and 2"},
      {"measurement": "BIMF item 11 (a little time each week to do something for myself) Δ", "setting": "Day 7 vs Day 0", "value": "1 and 2"},
      {"measurement": "BIMF item 12 (taking good care of my baby's physical needs) Δ", "setting": "Day 7 vs Day 0", "value": 0},
      {"measurement": "BIMF item 13 (taking good care of my physical needs) Δ", "setting": "Day 7 vs Day 0", "value": "1 and 4"},
      {"measurement": "BIMF item 14 (good decisions about my baby's health and well being) Δ", "setting": "Day 7 vs Day 0", "value": 0},
      {"measurement": "BIMF item 15 (My baby and I are getting into a routine) Δ", "setting": "Day 7 vs Day 0", "value": 1},
      {"measurement": "BIMF item 16 (I worry about how other people judge me) Δ", "setting": "Day 7 vs Day 0", "value": "2 and 4"},
      {"measurement": "BIMF item 17 (able to take care of my baby and my other responsibilities) Δ", "setting": "Day 7 vs Day 0", "value": "0 and 3"},
      {"measurement": "BIMF item 18 (Anxiety or worry often interferes with my mothering ability) Δ", "setting": "Day 7 vs Day 0", "value": "3 and 5"},
      {"measurement": "BIMF item 19 (getting better at taking care of my baby) Δ", "setting": "Day 7 vs Day 0", "value": "1 and 6"},
      {"measurement": "BIMF item 20 (satisfied with the job I am doing as a new mother) Δ", "setting": "Day 7 vs Day 0", "value": "−1 and 4"},
      {"measurement": "BPRS anxiety improvement", "setting": "discharge", "value": "6 and 5"},
      {"measurement": "BPRS anxiety score", "setting": "discharge", "value": 1},
      {"measurement": "BPRS blunted affect improvement", "setting": "discharge", "value": "0 and 4"},
      {"measurement": "BPRS blunted affect score", "setting": "discharge", "value": 1},
      {"measurement": "BPRS conceptual disorganization improvement", "setting": "discharge", "value": "0 and 3"},
      {"measurement": "BPRS conceptual disorganization score", "setting": "discharge", "value": 1},
      {"measurement": "BPRS depressive mood improvement", "setting": "discharge", "value": "5 and 4"},
      {"measurement": "BPRS depressive mood score", "setting": "discharge", "value": 1},
      {"measurement": "BPRS disorientation improvement", "setting": "discharge", "value": 0},
      {"measurement": "BPRS disorientation score", "setting": "discharge", "value": 1},
      {"measurement": "BPRS emotional withdrawal improvement", "setting": "discharge", "value": "4 and 5"},
      {"measurement": "BPRS emotional withdrawal score", "setting": "discharge", "value": 1},
      {"measurement": "BPRS excitement improvement", "setting": "discharge", "value": "1 and 0"},
      {"measurement": "BPRS excitement score", "setting": "discharge", "value": 1},
      {"measurement": "BPRS grandiosity improvement", "setting": "discharge", "value": 0},
      {"measurement": "BPRS grandiosity score", "setting": "discharge", "value": 1},
      {"measurement": "BPRS guilt feelings improvement", "setting": "discharge", "value": 5},
      {"measurement": "BPRS guilt feelings score", "setting": "discharge", "value": 1},
      {"measurement": "BPRS hallucinatory behaviour improvement", "setting": "discharge", "value": 0},
      {"measurement": "BPRS hallucinatory behaviour score", "setting": "discharge", "value": 1},
      {"measurement": "BPRS hostility improvement", "setting": "discharge", "value": "0 and 3"},
      {"measurement": "BPRS hostility score", "setting": "discharge", "value": 1},
      {"measurement": "BPRS mannerisms and posturing improvement", "setting": "discharge", "value": 0},
      {"measurement": "BPRS mannerisms and posturing score", "setting": "discharge", "value": 1},
      {"measurement": "BPRS motor retardation improvement", "setting": "discharge", "value": "0 and 2"},
      {"measurement": "BPRS motor retardation score", "setting": "discharge", "value": 1},
      {"measurement": "BPRS somatic concern improvement", "setting": "discharge", "value": "5 and 0"},
      {"measurement": "BPRS somatic concern score", "setting": "discharge", "value": 1},
      {"measurement": "BPRS suspiciousness improvement", "setting": "discharge", "value": 0},
      {"measurement": "BPRS suspiciousness score", "setting": "discharge", "value": 1},
      {"measurement": "BPRS tension improvement", "setting": "discharge", "value": 3},
      {"measurement": "BPRS tension score", "setting": "discharge", "value": 1},
      {"measurement": "BPRS uncooperativeness improvement", "setting": "discharge", "value": 0},
      {"measurement": "BPRS uncooperativeness score", "setting": "discharge", "value": 1},
      {"measurement": "BPRS unusual thought content improvement", "setting": "discharge", "value": 0},
      {"measurement": "BPRS unusual thought content score", "setting": "discharge", "value": 1}
    ]}
  ]
}
